Where two headings read alike, the source gives them in different places.
Assay: Solubilization of sparingly soluble compounds using quaternary ammonium cationic surfactants (dissolved concentration by HPLC)
Format: physicochemical
Procedure: Aqueous solubility of dexamethsone, a corticosteroid, and natamycin, an antifungal agent, was increased by using quaternary ammonium cationic surfactants cetyltrimethylammonium bromide (CTAB), ditetradecyldimethylammonium bromide (TMAB), and dioctadecyldimethylammonium chloride (OMAC). Stock solutions of surfactants were prepared by adding water to the surfactant and mixing under low shear at room temperature. The stock solution of CTAB and TMAB was prepared at 10 mg/mL and 20 mg/mL in WFI (water for injection) whereas the stock solution of OMAC was only prepared at 10 mg/mL due to gel formation at 20 mg/mL. Surfactant solutions with different concentrations were then prepared by diluting the corresponding stock solution with WFI.
Dexamethasone (or natamycin) was added to each surfactant solution in such quantity to precipitate. The mixture was sonicated for one hour in a sonication water tank and then stirred overnight.
Dissolved dexamethasone (or natamycin) concentration was analyzed on HPLC following two different procedures: (1) An aliquot of the mixture was centrifuged at 10 k RPM (9.3 k×g relative gravitational force) for 30 min. Clear supernatant was then analyzed on HPLC; (2) An aliquot of the mixture was filtered through a syringe filter (Acrodisc®, Supor membrane, 0.2 micrometers), and then analyzed on HPLC. […]

SMILES | Aqueous solubility | Aqueous solubility (in aqueous solutions of quaternary ammonium cationic surfactants CTAB, TMAB and OMAC in WFI, sonicated one hour, stirred overnight, HPLC after centrifugation or 0.2 micrometer filtration)
C[C@@H]1C/C=C/C=C/C=C/C=C/[C@H](O[C@@H]2O[C@H](C)[C@@H](O)[C@H](N)[C@@H]2O)C[C@@H]2O[C@](O)(C[C@@H](O)C[C@H]3O[C@@H]3/C=C/C(=O)O1)C[C@H](O)[C@H]2C(=O)O [natamycin] | increased | –
C[C@@H]1C[C@H]2[C@@H]3CCC4=CC(=O)C=C[C@]4(C)[C@@]3(F)[C@@H](O)C[C@]2(C)[C@@]1(O)C(=O)CO [dexamethsone, dexamethasone] | – | increased
